Source: patent US4526894A, “Pharmaceutically active 4-hydroxy-3-benzoyl-2-quinolone derivatives” (Nippon Shinyaku Co. Ltd., priority 1982, dated 1985)
Where a name gives a salt, the structure may show the parent alone. Read-outs that look alike come from different tables or passages of the source.

How the values were obtained:
[1] = system: SRS-A (slow reacting substance of anaphylaxis); assay: Anti-SRS-A action using isolated ileus of guinea pigs
Experimental: Anti-SRS-As action (An anti-action against slow reacting substance of anaphylaxis).
Hartley strain male guinea pigs (300 to 350 grams body weight) are killed and 1.0 to 1.5 cm of ileus is immeidiately excised from ileocecal parts and is suspended in 10 ml of Tyrode solution (95% O2 -5% CO2 saturation) containing 10^-7 g/ml of atropine and 10^-6 g/ml of pyrilamine. SRS-A (20 units) (the amount of SRS-A showing the same shrinkage as 5 ng of histamine is defined as 1 unit) prepared by using sensitized guinea pig lung is given to cause shrinkage there. Then antagonistic action of test compounds treated five minutes ago against the shrinkage is measured and recorded via isotonic transducer.
Inhibition Ratio of Test Compd (%)=(1-A'/A)×100
in which A' is a height of shrinkage of SRS-A+test compound and A is that of SRS-A.

[2] = system: passive cutaneous anaphylaxis (DNP-As antigen) in Wister strain rats; assay: passive cutaneous anaphylaxis (PCA) assay in rats; assay type: in vivo; conditions: 10 mg/kg oral, one hour before antigen; for inhibition in vivo at 10 mg/kg: Rattus norvegicus, po, 1 h, read-out: PCA Inhibition Ratio %
Experimental: (i) Antiserum abundant in homocytotropic antibody is prepared by the same method as Tada and Okumura did (cf. Journal of Immunology, vol. 106, page 1002, 1976). Thus, 1 mg (calculated as an amount of protein) of DNP-As (2,4-dinitrophenyl-coupled ascaris extract) prepared by methods of Strejan and Campbell (Journal of Immunology, vol. 98, p. 893, 1971) and of Eisen (Journal of Amer. Chem. Soc., vol. 85, p 4593, 1953) and 1×10^10pertussis vaccine are administered to each paw of Wister strain rats (180 to 200 grams body weights) by dividing the dose by four. Five days later, 0.5 mg of DNP-As is administered into muscle of back. Eight days later from the initial immunization, blood is taken from descending aorta under anesthetizing with ether, the resulting serum is stored at -80° and is melted before use.
(ii) Effect of tested compounds is investigated as follows:
Anti-serum obtained by the method (i) is diluted with physiological saline solution double by double successively and 0.05 ml of each diluted solution is administered into back of Wister strain rats (140 to 160 grams body weight) subcutaneously. After 72 hours, a solution of 2 mg (calculated as protein) of DNP-As and 2.5 mg of Evans Blue dissolved in 1 ml of physiological saline solution is administered intraveously at a dose of 5 ml/kg. After 30 minutes from antigen solution administration, the animals are killed and diameters of blue spots appeared at the place where antiserum is administered are measured. The PCA test is conducted by the same method as already described using a diluted solutions of antiserum which always show 10 mm or more of spot diameters and the effect of the test compounds is judged. Thus antiserum diluted solutions are administered to two places in back. Test compounds are administered orally at the dose of 10 mg/kg one hour before administration of antigen solution. From the skin of reacted parts of killed animals, leaked or emitted dyestuff is extracted and the amount of the dyestuff is measured. The inhibition ratio is calculated by the following expression:
Inhibition Ratio=(1-A'/A)×100
in which A' is an amount of dyestuff in the group treated with the test compounds and A is that in the control group.

[3] = system: carrageenin edema in SD-strain rats; assay: Carrageenin edema at hind foot of rats (anti-inflammatory action); assay type: in vivo, rat; conditions: for inhibition in vivo at 200 mg/kg: Rattus norvegicus, po, 3 h, read-out: % Inhibition of carrageenin edema
Experimental: The anti-inflammatory action of the compounds of the present invention were evaluated by measuring the inhibition against carrageein edema as set forth below.
Carrageenin edema at hind foot of rats:
SD-strain rats of body weights of around 150 grams were used, each group consisting of five rats. A solution (0.1 ml) of 0.5% carrageenin dissolved in physiological saline water was hypodermically injected into right hind foot pat of the rats and, one hour prior to the injection of carrageenin, 200 mg/kg of test compound was given per os. Foot volumes of the rats before the carrageenin treatment and those of three hours after the treatment were measured and the differences were compared with those of the control group to determine the effect of the compounds.

male mice = assay: Acute oral toxicity in mice (lethal ratio); assay type: in vivo; conditions: 400 mg/kg oral, two weeks, four mice per group
Experimental: Acute toxicity was determined two weeks after oral administration of 400 mg/kg to male mice. Four mice (denominator) are used in each group and the dead numbers are given as the numerator. The compounds of the present invention show little, if any, toxicity.
Lethal ratios for all other compounds are 0/4 at doses of […]. It is therefore apparent that they are all safe compounds.

[4] = 10^-6 M; guinea pig ileus, SRS-A 20 units; 5 min, 1 µM
[5] = 200 mg/kg per os one hour before carrageenin, 3 hours after

Compound	SRS-A Inhibition Ratio % [1, 4] [%]	inhibition in vivo at 10 mg/kg [2] [%]	inhibition in vivo at 200 mg/kg [3, 5] [%]	further results
Cc1ccc2c(O)c(C(=O)c3ccccc3)c(=O)[nH]c2c1 [Example 18, 3-benzoyl-4-hydroxy-7-methyl-2-quinolone]	21.3	26		
Cc1cc(C)c2[nH]c(=O)c(C(=O)c3ccccc3Cl)c(O)c2c1 [Example 37, 3-(2-chlorobenzoyl)-6,8-dimethyl-4-hydroxy-2-quinolone]	28.3	20.8		
COc1ccc(C(=O)c2c(O)c3ccccc3[nH]c2=O)c(OC)c1 [Example 28, 3-(2,4-dimethoxybenzoyl)-4-hydroxy-2-quinolone]	42.9	21.2		
O=C(c1ccccc1)c1c(O)c2cc(Cl)ccc2[nH]c1=O [Example 1, 3-Benzoyl-6-chloro-4-hydroxy-2-quinolone]			42.1	
O=C(c1ccccc1)c1c(O)c2ccc([N+](=O)[O-])cc2[nH]c1=O [Example 10, 3-benzoyl-4-hydroxy-7-nitro-2-quinolone]	22.3	33.4		Lethal Ratio (dead/treated) (male mice): 0/4
CC(C)c1ccc2[nH]c(=O)c(C(=O)c3ccccc3Cl)c(O)c2c1 [Example 36, 3-(2-chlorobenzoyl)-4-hydroxy-6-isopropyl-2-quinolone]	60.0	12.4		
CCCCCCc1ccc2[nH]c(=O)c(C(=O)c3ccccc3)c(O)c2c1 [Example 55]		13.6		SRS-A Inhibition Ratio % ([1]; 10^-6 M, guinea pig ileus, SRS-A 20 units, 5 min, 1 µM): 85.6%; % Inhibition of carrageenin edema [3, 5]: 10.0%
COc1ccc(C(=O)c2c(O)c3ccccc3[nH]c2=O)cc1OC [Example 2, 3-(3,4-Dimethoxybenzoyl)-4-hydroxy-2-quinolone]	24.2	25.5		
COC(=O)c1cccc2[nH]c(=O)c(C(=O)c3ccccc3)c(O)c12 [Example 3, Methyl 3-benzoyl-4-hydroxy-2-quinolone-5-carboxylate]	26.4	26.9	32.8	
O=C(c1ccccc1Cl)c1c(O)c2ccccc2[nH]c1=O [Example 35, 3-(2-chlorobenzoyl)-4-hydroxy-2-quinolone]	32.6	45.6		Lethal Ratio (dead/treated) (male mice): 0/4
CCCCCCc1ccc2[nH]c(=O)c(C(=O)c3ccccc3)c(O)c2c1 [Example 7, 3-Benzoyl-6-n-hexyl-4-hydroxy-2-quinolone sodium salt]				SRS-A Inhibition Ratio % ([1]; 10^-6 M, guinea pig ileus, SRS-A 20 units, 5 min, 1 µM, sodium salt): 91.2%; PCA Inhibition Ratio % ([2]; rat, sodium salt, 10 mg/kg): 15.2%
O=C(c1ccccc1)c1c(O)c2cccc(C(=O)O)c2[nH]c1=O [Example 16, 3-benzoyl-4-hydroxy-2-quinolone-8-carboxylic acid]	22.4	30.9		Lethal Ratio (dead/treated) (male mice): 0/4
CCCCCc1ccc(C(=O)c2c(O)c3ccccc3[nH]c2=O)cc1 [Example 46, 4-hydroxy-3-(4-n-pentylbenzoyl)-2-quinolone]	26.9	3.2		
Cc1cc2[nH]c(=O)c(C(=O)c3ccccc3)c(O)c2cc1C [Example 20, 3,-benzoyl-6,7-dimethyl-4-hydroxy-2-quinolone]	23.5	17.4		
O=C(c1ccc([N+](=O)[O-])cc1)c1c(O)c2ccccc2[nH]c1=O [Example 47, 4-hydroxy-3-(4-nitrobenzoyl)-2-quinolone]	22.0	49.4		Lethal Ratio (dead/treated) (male mice): 0/4
CCCCCCc1ccc2[nH]c(=O)c(C(=O)c3ccc(OC)cc3)c(O)c2c1 [Example 59]			12.8	
CC(C)c1ccc2[nH]c(=O)c(C(=O)c3ccccc3)c(O)c2c1 [Example 5, 3-Benzoyl-4-hydroxy-6-isopropyl-2-quinoline]			32.1	
CCCCc1ccc2[nH]c(=O)c(C(=O)c3ccccc3)c(O)c2c1 [Example 22, 3-benzoy-6-n-butyl-4-hydroxy-2-quinolone]	39.5	17.4		
COc1ccc(C(=O)c2c(O)c3ccc([N+](=O)[O-])cc3[nH]c2=O)c(OC)c1OC [Example 54, 4-hydroxy-7-nitro-3-(2,3,4-trimethoxybenzoyl)-2-quinolone]			13.1	
O=C(c1cccc(C(F)(F)F)c1)c1c(O)c2ccccc2[nH]c1=O [Example 44, 4-hydroxy-3-(3-trifluoromethylbenzoyl)-2-quinolone]			15.9	
COc1ccc(C(=O)c2c(O)c3cc(C)ccc3[nH]c2=O)cc1OC [Example 29, 3-(3,4-dimethoxybenzoyl)-4-hydroxy-6-methyl-2-quinolone]	42.1	12.1		
CC(C)c1ccc2[nH]c(=O)c(C(=O)c3ccc([N+](=O)[O-])cc3)c(O)c2c1 [Example 48, 4-hydroxy-6-isopropyl-3-(4-nitrobenzoyl)-2-quinolone]		8.6	12.5	
Cc1ccc(C(=O)c2c(O)c3ccccc3[nH]c2=O)c(C)c1 [Example 43, 3-(2,4-dimethylbenzoyl)-4-hydroxy-2-quinolone]			15.7	
O=C(O)c1ccc(C(=O)c2c(O)c3ccccc3[nH]c2=O)cc1 [Example 51, 3-(4-carboxybenzoyl)-4-hydroxy-2-quinolone]	50.0	7.4		
COc1ccccc1C(=O)c1c(O)c2ccccc2[nH]c1=O [Example 24, 4-hydroxy-3-(2-methoxybenzoyl)-2-quinolone]	20.2	24.7		
CC(=O)Oc1ccccc1C(=O)O [Acetylsalicylic Acid, reference compound]				inhibition in vivo at 200 mg/kg [3]: 31.6%
COc1ccc(C(=O)c2c(O)c3ccc([N+](=O)[O-])cc3[nH]c2=O)cc1OC [Example 30, 3-(3,4-dimethoxybenzoyl)-4-hydroxy-7-nitro-2-quinolone]	26.7	18.7	21.3	
Cc1ccc2[nH]c(=O)c(C(=O)c3ccccc3)c(O)c2c1 [Example 17, 3-benzoyl-4-hydroxy-6-methyl-2-quinolone]	21.9	35.4		
O=C(c1ccc(Cl)cc1)c1c(O)c2ccccc2[nH]c1=O [Example 39, 3-(4-chlorobenzoyl)-4-hydroxy-2-quinolone]	27.0	19.8		
COc1ccc(C(=O)c2c(O)c3cccc(C)c3[nH]c2=O)cc1OC [Example 31, 3-(3,4-dimethoxybenzoyl)-4-hydroxy-8-methyl-2-quinolone]	20.5	20.4	77.5	
